The results in this text go back to patent US20250312499A1, “KISSPEPTIN RECEPTOR (KISS1R) TARGETED THERAPEUTICS AND USES THEREOF” (priority 2024, published 2025).

By Ki is commonly meant a dissociation constant, usually derived from enzyme kinetics or from competition with a known ligand.

For this assay, the target named is human kisspeptin receptor (Homo sapiens (Human), UniProt Q969F8). The assay can be described thus: Human KISS1R binding assay (membrane competition binding). Conditions: 90 min at room temperature; competition with 0.2 nM [125I]-metastin (45-54); Flp-In T-Rex 293 kisspeptin membranes; metal complexes nonradioactive Ga, In, Lu; read-out: hKiSSR Binding Ki (90 min). The method, then:
Crude membrane fractions are prepared from Flp-In T-Rex 293 (Thermo Fisher) cell line expressing the human kisspeptin receptor. The cells are grown to 85-100% confluence on standard tissue culture dishes in Dulbecco's Modified Eagles Medium (DMEM) (Corning) supplemented with 10% FBS (Gemini), 1% penicillin-streptomycin-glutamine (Gibco), 500 μg/mL hygromycin, and 15 μg/mL blastacidin. 48 hrs prior to preparing membranes 10 μg/ml of tetracycline is added to the culture media to induce receptor expression. To prepare membranes, cells are scraped and collected in 1× Dulbecco's phosphate buffered saline (Corning) and then pelleted at 1000 RPMs. The cell pellet is reconstituted in membrane preparation buffer (20 mM HEPES, 6 mM MgCl2 and 1 mM EGTA, protease inhibitor tablets (Pierce), pH 7.4) and placed in a cell disruption vessel (Parr Instrument company) at 1000 PSI for 30 min on ice. The pressurized contents are then released and spun down at 1000 RPMs and the supernatant is collected and further centrifuged at 15,000 RPMs to pellet the membranes. The membrane pellet is resuspended in membrane preparation buffer, snap frozen and stored at −80° C. for later use.
The human kisspeptin membrane binding assay utilizes the following components: radiolabel [^125I]-metastin (45-54) (human) (Perkinhmer), crude Flp-In T-Rex 293 kisspeptin membranes, and competing small molecule and peptide ligands. The assay is initiated by combining in assay buffer (50 mM TrisHCl, 5 mM MgCl2, 2 mM EGTA, 10 mM CaCl2, 0.1% BSA, pH 7.4) a dose response of competing ligand (final concentrations are typically 0-10,000 nM), 5-10 μg of Flp-In T-Rex 293 kisspeptin membranes, and 0.2 n M [^125I]-metastin (45-54) in a 96-well assay plate and allowed to incubate 90 minutes at room temperature. Assay contents are then filtered through unifilter CF/C: microplates (PerkinElmer) pre-soaked with 0.5% BSA and washed with 9×400 μL of cold wash buffer (10 mM HEPES, 500 mM NaCl, 0.1% Tween-20, pH7.4). Assay plates are read using a Microbeta^2 (PerkinElmer) and Ki values for compounds are determined using a GraphPad Prism 9.3 non-linear regression analysis.

Numbered stars: 1 amine (or outer) side, 2 acyl side, 3 side chain; on linkers, the order of the positions; unused ones are H or OH. Square brackets hold non-standard residues; d marks the D form. Peptide text beside a SMILES is read from it. * marks the point of attachment. DOTA = O=C(O)CN1CCN(CC(=O)O)CCN(CC(=O)*)CCN(CC(=O)O)CC1; Ala(9-anthryl) = N[C@@H](Cc1c2ccccc2cc2ccccc12)C(=O)O; Gly(N-(3-F-4-Me-benzyl)) = Cc1ccc(CNCC(=O)*)cc1F; Gly(Nα-4-MeO-benzyl) = COc1ccc(CNCC(=O)*)cc1; Api(1-amidino) = N=C(N)N1CCC(N)(C(=O)O)CC1; Hydrocinnamoyl(4-I) = O=C(CCc1ccc(I)cc1)*; HO(CH2CH2O)2CH2CH2CO = O=C(CCOCCOCCO)*; Phe(3-F) = N[C@@H](Cc1cccc(F)c1)C(=O)O; Phe(4-I) = N[C@@H](Cc1ccc(I)cc1)C(=O)O; d2Nal = N[C@H](Cc1ccc2ccccc2c1)C(=O)O; NBzl(4-I)Gly = O=C(O)CNCc1ccc(I)cc1; X1 = O=C(CN1CCC(N[*:1])CC1)[*:2]; dCya = N[C@H](CS(=O)(=O)O)C(=O)O; 4Pal = N[C@@H](Cc1ccncc1)C(=O)O; d4Pal = N[C@H](Cc1ccncc1)C(=O)O; X15 = O=C(CNCCc1ccc(I)cc1)*; Api = NC1(C(=O)O)CCNCC1; PEG2 = NCCOCCOCCC(=O)O; Ahx = NCCCCCC(=O)O; azaGly = NNC(=O)O; Sar = CNCC(=O)O

Sequence of human kisspeptin receptor (Q969F8 whole entry): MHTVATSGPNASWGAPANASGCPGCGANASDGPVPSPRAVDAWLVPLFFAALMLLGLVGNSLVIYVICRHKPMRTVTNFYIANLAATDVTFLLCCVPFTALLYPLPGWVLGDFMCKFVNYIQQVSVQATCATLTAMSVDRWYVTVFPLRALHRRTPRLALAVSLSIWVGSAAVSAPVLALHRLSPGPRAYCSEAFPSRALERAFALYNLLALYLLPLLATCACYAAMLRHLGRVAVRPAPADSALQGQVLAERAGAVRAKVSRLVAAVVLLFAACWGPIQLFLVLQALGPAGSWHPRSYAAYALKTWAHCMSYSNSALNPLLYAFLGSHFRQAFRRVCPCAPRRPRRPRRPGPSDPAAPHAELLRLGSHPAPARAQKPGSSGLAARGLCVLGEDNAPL

With `Cc1ccc(CNCC(=O)N2CCC(NC(=O)[C@H](CC(C)C)NC(=O)NNC(=O)[C@H](Cc3ccccc3)NC(=O)[C@@H](NC(=O)[C@H](CC(N)=O)NC(=O)[C@@H](Cc3c[nH]c4ccccc34)NC(=O)[C@@H](Cc3ccc(O)cc3)NC(=O)CCCCCNC(=O)[C@@H](CS(=O)(=O)O)NC(=O)[C@@H](CS(=O)(=O)O)NC(=O)CN3CCN(CC(=O)O)CCN(CC(=O)O)CCN(CC(=O)O)CC3)[C@@H](C)O)(C(=O)N[C@@H](Cc3c[nH]c4ccccc34)C(N)=O)CC2)cc1F` [Compound 120] ({DOTA}-[dCya][dCya][Ahx][dY][dW]NTF[azaGly]L[Api](Gly(N-(3-F-4-Me-benzyl)))W-NH2), the Ki is under 10 nM.

Consider `Cc1ccc(CNCC(=O)N2CCC(NC(=O)[C@H](CC(C)C)NC(=O)NNC(=O)[C@H](Cc3ccccc3)NC(=O)[C@@H](NC(=O)[C@H](CC(N)=O)NC(=O)[C@@H](Cc3ccncc3)NC(=O)[C@@H](Cc3ccc(O)cc3)NC(=O)CN3CCC(NC(=O)CN4CCN(CC(=O)O)CCN(CC(=O)O)CCN(CC(=O)O)CC4)CC3)[C@@H](C)O)(C(=O)N[C@@H](Cc3c[nH]c4ccccc34)C(N)=O)CC2)cc1F` [Compound 29] ({DOTA}-[X1][dY][d4Pal]NTF[azaGly]L[Api](Gly(N-(3-F-4-Me-benzyl)))W-NH2), for which the Ki is under 10 nM.

With `Cc1ccc(CNCC(=O)N2CCC(NC(=O)[C@H](CC(C)C)NC(=O)NNC(=O)[C@H](Cc3cccc(F)c3)NC(=O)[C@@H](NC(=O)[C@H](CC(N)=O)NC(=O)[C@H](CCCCN)NC(=O)CN3CCC(NC(=O)CN4CCN(CC(=O)O)CCN(CC(=O)O)CCN(CC(=O)O)CC4)CC3)[C@@H](C)O)(C(=O)N[C@@H](Cc3c[nH]c4ccccc34)C(N)=O)CC2)cc1F` [Compound 164] ({DOTA}-[X1]KNT[Phe(3-F)][azaGly]L[Api](Gly(N-(3-F-4-Me-benzyl)))W-NH2), the Ki was under 10 nM.

With `Cc1ccc(CNCC(=O)N2CCC(NC(=O)[C@H](CC(C)C)NC(=O)NNC(=O)[C@H](Cc3ccccc3)NC(=O)[C@@H](NC(=O)[C@H](CC(N)=O)NC(=O)[C@@H](Cc3ccc4ccccc4c3)NC(=O)[C@@H](Cc3ccc(O)cc3)NC(=O)CCCCCNC(=O)CN3CCN(CC(=O)O)CCN(CC(=O)O)CCN(CC(=O)O)CC3)[C@@H](C)O)(C(=O)N[C@@H](Cc3ccc(O)cc3)C(N)=O)CC2)cc1F` [Compound 367] ({DOTA-Ahx}-[dY][d2Nal]NTF[azaGly]L[Api](Gly(N-(3-F-4-Me-benzyl)))Y-NH2), the inhibition constant (Ki) was under 10 nM.

As to `CC(C)C[C@H](NC(=O)NNC(=O)[C@H](Cc1ccccc1)NC(=O)[C@@H](NC(=O)[C@H](CC(N)=O)NC(=O)[C@H](CCCCNC(=O)CN1CCN(CC(=O)O)CCN(CC(=O)O)CCN(CC(=O)O)CC1)NC(=O)[C@@H](Cc1ccc(O)cc1)NC(=O)CCOCCOCCNC(=O)CCc1ccc(I)cc1)[C@@H](C)O)C(=O)NC1(C(=O)N[C@@H](Cc2ccc(O)cc2)C(N)=O)CCN(C(=N)N)CC1` [Compound 324] ({Hydrocinnamoyl(4-I)-PEG2}-[dY]K(DOTA)NTF[azaGly]L[Api(1-amidino)]Y-NH2), the Ki is under 10 nM.

For `Cc1ccc(CNCC(=O)N2CCC(NC(=O)[C@H](CC(C)C)N[C@@H](CNC(=O)[C@H](Cc3ccccc3)NC(=O)CCCCCNC(=O)CN3CCN(CC(=O)O)CCN(CC(=O)O)CCN(CC(=O)O)CC3)C(F)(F)F)(C(=O)N[C@@H](Cc3c[nH]c4ccccc34)C(N)=O)CC2)cc1F` [Compound 148], the Ki fell in the range of 10 to 100 nM.

As for `COc1ccc(CNCC(=O)N2CCC(NC(=O)[C@@H](CC(C)C)NC(=O)NNC(=O)[C@H](Cc3ccccc3)NC(=O)[C@@H](NC(=O)[C@H](CC(N)=O)NC(=O)[C@H](CCC(=O)O)NC(=O)CN3CCN(CC(=O)O)CCN(CC(=O)O)CCN(CC(=O)O)CC3)[C@@H](C)O)(C(=O)N[C@@H](Cc3ccccc3)C(N)=O)CC2)cc1` [Compound 239] ({DOTA}-ENTF[azaGly][dL][Api](Gly(Nα-4-MeO-benzyl))F-NH2), the Ki was over 100 nM.

As to `Cc1ccc(CNCC(=O)N2CCC(NC(=O)[C@H](CC(C)C)NC(=O)NNC(=O)[C@H](Cc3ccccc3)NC(=O)[C@@H](NC(=O)[C@H](CC(N)=O)NC(=O)[C@@H](Cc3ccncc3)NC(=O)CCCCCNC(=O)CN3CCN(CC(=O)O)CCN(CC(=O)O)CCN(CC(=O)O)CC3)[C@@H](C)O)(C(=O)N[C@@H](Cc3ccncc3)C(N)=O)CC2)cc1F` [Compound 295] ({DOTA-Ahx}-[d4Pal]NTF[azaGly]L[Api](Gly(N-(3-F-4-Me-benzyl)))[4Pal]-NH2), the Ki was under 10 nM.

Regarding `Cc1ccc(CNCC(=O)N2CCC(NC(=O)[C@H](CC(C)C)NC(=O)NNC(=O)[C@H](Cc3cccc(F)c3)NC(=O)[C@@H](NC(=O)[C@H](CC(N)=O)NC(=O)[C@H](CCCCN)NC(=O)[C@@H](Cc3ccc(O)cc3)NC(=O)CCCCCNC(=O)CN3CCN(CC(=O)O)CCN(CC(=O)O)CCN(CC(=O)O)CC3)[C@@H](C)O)(C(=O)N[C@@H](Cc3c[nH]c4ccccc34)C(N)=O)CC2)cc1F` [Compound 27] ({DOTA-Ahx}-[dY]KNT[Phe(3-F)][azaGly]L[Api](Gly(N-(3-F-4-Me-benzyl)))W-NH2), the Ki was under 10 nM.

Regarding `Cc1ccc(CNCC(=O)N2CCC(NC(=O)[C@H](CC(C)C)NC(=O)NNC(=O)[C@H](Cc3ccccc3)NC(=O)[C@@H](NC(=O)[C@H](CC(N)=O)NC(=O)[C@H](CCCCNC(=O)CN3CCN(CC(=O)O)CCN(CC(=O)O)CCN(CC(=O)O)CC3)NC(=O)CCOCCOCCO)[C@@H](C)O)(C(=O)N[C@@H](Cc3ccncc3)C(N)=O)CC2)cc1F` [Compound 253] ({HO(CH2CH2O)2CH2CH2CO}-K(DOTA)NTF[azaGly]L[Api](Gly(N-(3-F-4-Me-benzyl)))[4Pal]-NH2), the Ki is under 10 nM.

Regarding `Cc1ccc(CNCC(=O)N2CCC(NC(=O)[C@H](CC(C)C)NC(=O)NNC(=O)[C@H](Cc3ccccc3)NC(=O)CN3CCC(NC(=O)CN4CCN(CC(=O)O)CCN(CC(=O)O)CCN(CC(=O)O)CC4)CC3)(C(=O)N[C@@H](Cc3c[nH]c4ccccc34)C(N)=O)CC2)cc1F` [Compound 28] ({DOTA}-[X1]F[azaGly]L[Api](Gly(N-(3-F-4-Me-benzyl)))W-NH2), the Ki was under 10 nM.

Take `CC(C)C[C@H](NC(=O)NNC(=O)[C@H](Cc1ccccc1)NC(=O)[C@@H](NC(=O)[C@H](CC(N)=O)NC(=O)[C@@H](Cc1ccc2ccccc2c1)NC(=O)[C@@H](Cc1ccc(O)cc1)NC(=O)CCCCCNC(=O)CN1CCN(CC(=O)O)CCN(CC(=O)O)CCN(CC(=O)O)CC1)[C@@H](C)O)C(=O)NC1(C(=O)N[C@H](Cc2c[nH]c3ccccc23)C(N)=O)CCN(C(=O)CNCc2ccc(I)cc2)CC1` [Compound 371] ({DOTA-Ahx}-[dY][d2Nal]NTF[azaGly]L[Api](NBzl(4-I)Gly)[dW]-NH2): the Ki is under 10 nM.

In the case of `CC(C)C[C@H](NC(=O)NNC(=O)[C@H](Cc1ccc(I)cc1)NC(=O)[C@@H](NC(=O)[C@H](CC(N)=O)NC(=O)[C@H](Cc1ccc(I)cc1)NC(=O)[C@@H](Cc1ccc(O)cc1)NC(=O)CN1CCN(CC(=O)O)CCN(CC(=O)O)CCN(CC(=O)O)CC1)[C@@H](C)O)C(=O)NC1(C(=O)N[C@@H](Cc2ccncc2)C(N)=O)CCN(C(=N)N)CC1` [Compound 121] ({DOTA}-[dY][Phe(4-I)]NT[Phe(4-I)][azaGly]L[Api(1-amidino)][4Pal]-NH2), the Ki lay in the range of 10 to 100 nM.

As to `CC(C)C[C@H](NC(=O)NNC(=O)[C@H](Cc1ccccc1)NC(=O)[C@@H](NC(=O)[C@H](CC(N)=O)NC(=O)[C@@H](Cc1ccc2ccccc2c1)NC(=O)[C@@H](Cc1ccc(O)cc1)NC(=O)CCCCCNC(=O)CN1CCN(CC(=O)O)CCN(CC(=O)O)CCN(CC(=O)O)CC1)[C@@H](C)O)C(=O)NC1(C(=O)N[C@H](Cc2c[nH]c3ccccc23)C(N)=O)CCN(C(=O)CNCCc2ccc(I)cc2)CC1` [Compound 373] ({DOTA-Ahx}-[dY][d2Nal]NTF[azaGly]L[Api](X15)[dW]-NH2), the Ki lay within 10 to 100 nM.

For the compound `Cc1ccc(CNCC(=O)N2CCC(NC(=O)[C@H](CC(C)C)NC(=O)NNC(=O)[C@H](Cc3ccccc3)NC(=O)CCCCCNC(=O)[C@@H](CS(=O)(=O)O)NC(=O)CN3CCN(CC(=O)O)CCN(CC(=O)O)CCN(CC(=O)O)CC3)(C(=O)N[C@@H](Cc3c[nH]c4ccccc34)C(N)=O)CC2)cc1F` [Compound 116] ({DOTA}-[dCya][Ahx]F[azaGly]L[Api](Gly(N-(3-F-4-Me-benzyl)))W-NH2), the Ki was under 10 nM.

Regarding `CNCC(=O)N1CCC(NC(=O)[C@H](CC(C)C)NC(=O)NNC(=O)[C@H](Cc2ccccc2)NC(=O)[C@@H](NC(=O)[C@H](CC(N)=O)NC(=O)[C@H](Cc2c3ccccc3cc3ccccc23)NC(=O)[C@@H](Cc2ccc(O)cc2)NC(=O)CN2CCN(CC(=O)O)CCN(CC(=O)O)CCN(CC(=O)O)CC2)[C@@H](C)O)(C(=O)N[C@@H](Cc2ccncc2)C(N)=O)CC1` [Compound 202] ({DOTA}-[dY][Ala(9-anthryl)]NTF[azaGly]L[Api](Sar)[4Pal]-NH2), the Ki is 10 to 100 nM.
